Results on 11 compounds are retold here after PMC5085765, “Discovery of Potent Carbonic Anhydrase and Acetylcholinesterase Inhibitors: 2-Aminoindan β-Lactam Derivatives” (International Journal of Molecular Sciences, 2016).

In assay [1] the target is T1, hCA II (Homo sapiens, UniProt P00918).
T1 construct: from tissue; host or cells: human erythrocytes
Put plainly: hCA II inhibition, esterase assay with p-nitrophenylacetate as substrate. It is filed as biochemical. Particulars: NPA substrate; for Ki: Lineweaver-Burk plots; for IC50: purified from human erythrocytes. As for the experimental part: (§1) Erythrocytes were obtained from the Research Hospital at Atatürk University. The red cells were haemolysed with ice-cold water after washing with 0.9% NaCl. The hemolysate was applied to the prepared Sepharose-4B-tyrosine-sulfanylamide affinity gel. Both CA isoenzymes were purified by Sepharose-4B-L-tyrosine-sulfanilamide affinity chromatography in a single step [58, 59, 60]. Sepharose-4B-L-tyrosine-sulfanilamide was prepared according to a previous method. Thus, homogenate solution acidity was adjusted and supernatant was transferred to the previously prepared Sepharose-4B-L-tyrosine-sulphanilamide affinity column. The proteins flow in the column eluates was spectrophotometrically determined at 280 nm. All purification steps were performed at 4 °C. Protein quantity was determined at 595 nm according to the Bradford method. Bovine serum albumin was used as the standard protein [64, 65, 66]. To monitor purification of both isoenzymes, sodium dodecyl sulphate-polyacrylamide gel electrophoresis (SDS-PAGE) was used according to the procedure of Laemmli. In this application, the imaging method was performed in 10% and 3% acrylamide for the running and the stacking gel, respectively, with 0.1% SDS [68, 69, 70].
(§2) Enzyme activity was determined hydrolysis of p-nitrophenylacetate (PNA) to p-nitrophenolate at 348 nm according to the method of Verpoorte et al. and described previously. The inhibitory effects of β-lactam derivatives 2a–k were examined. To obtain the half maximal inhibitory concentration (IC50) values, CA I, and II activity was measured in the presence of β-lactam derivatives at different cuvette concentrations. Activity (%)-[β-lactam] graph was drawn for each of the β-lactam derivatives 2a–k. To determine Ki values, three different β-lactam derivative concentrations were tested. In these experiments, different substrate (PNA) concentrations were used and Lineweaver-Burk curves were drawn as previously described.

Assay [2] addresses T2, hCA I (Homo sapiens, UniProt P00915).
T2 construct: from tissue; host or cells: human erythrocytes
The assay can be described thus: hCA I inhibition, esterase assay with p-nitrophenylacetate as substrate. Conditions: NPA substrate; for Ki: Lineweaver-Burk plots; for IC50: purified from human erythrocytes. It is filed as biochemical. As for the experimental part:
as §1, §2

T2 sequence (P00915 whole entry): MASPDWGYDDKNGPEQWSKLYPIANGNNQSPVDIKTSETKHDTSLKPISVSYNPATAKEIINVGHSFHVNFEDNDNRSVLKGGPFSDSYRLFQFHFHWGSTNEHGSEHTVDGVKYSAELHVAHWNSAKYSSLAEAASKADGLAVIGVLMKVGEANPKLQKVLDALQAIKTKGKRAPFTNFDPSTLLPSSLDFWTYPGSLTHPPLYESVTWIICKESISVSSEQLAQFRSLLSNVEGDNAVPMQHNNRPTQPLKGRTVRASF

On to `CC(=O)O[C@@H]1C(=O)N(C2Cc3ccccc3C2)[C@@H]1c1ccccc1` (relative stereo) [Compound 2a, (3S*,4R*)-1-(2,3-Dihydro-1H-inden-2-yl)-2-oxo-4-phenylazetidin-3-yl acetate], for which, in assay [1], the Ki (as a rule, a dissociation constant, usually derived from enzyme kinetics or from competition with a known ligand) turned out to be 3.54 ± 0.405 nM and half-maximal inhibition (IC50) required 5.21 nM. For the same compound, in assay [2], the inhibitory constant (Ki) stood at 0.44 ± 0.115 nM and the concentration for half-maximal inhibition (IC50) (commonly the concentration at which inhibition is half-maximal) was 0.612 nM.

As to `COc1cccc([C@@H]2[C@H](OC(C)=O)C(=O)N2C2Cc3ccccc3C2)c1` (relative stereo) [Compound 2b, (3S*,4R*)-1-(2,3-Dihydro-1H-inden-2-yl)-2-(3-methoxyphenyl)-4-oxoazetidin-3-yl acetate], in assay [1], the Ki was determined as 3.15 ± 1.14 nM and the 50% inhibitory concentration (IC50) came out at 6.42 nM. For the same compound, in assay [2], the Ki was 1.41 ± 0.547 nM and the IC50 amounted to 2.3 nM.

For the compound `CC(=O)O[C@@H]1C(=O)N(C2Cc3ccccc3C2)[C@@H]1c1ccc(C)cc1` (relative stereo) [Compound 2c, (3S*,4R*)-1-(2,3-Dihydro-1H-inden-2-yl)-2-oxo-4-p-tolylazetidin-3-yl acetate], the inhibitory constant (Ki) in assay [1] is 2.96 ± 0.157 nM; in assay [2] it was 1.5 ± 0.657 nM. In addition, the values for the half-maximal inhibitory concentration (IC50) in assay [1] and in assay [2] were 3.71 nM and 2.11 nM, respectively.

As to `CC(=O)O[C@@H]1C(=O)N(C2Cc3ccccc3C2)[C@@H]1c1cccc(C)c1` (relative stereo) [Compound 2d, (3S*,4R*)-1-(2,3-Dihydro-1H-inden-2-yl)-2-oxo-4-m-tolylazetidin-3-yl acetate], the values for the inhibitory constant (Ki) in assay [1] and in assay [2] were 3.26 ± 0.708 nM and 1.49 ± 0.29 nM, respectively. The half-maximal inhibitory concentration (IC50) was 4.18 nM in assay [1] and 0.231 nM in assay [2].

In assay [1], `CC(=O)O[C@@H]1C(=O)N(C2Cc3ccccc3C2)[C@@H]1c1cccc(Cl)c1` (relative stereo) [Compound 2e, (3S*,4R*)-2-(3-Chlorophenyl)-1-(2,3-dihydro-1H-inden-2-yl)-4-oxoazetidin-3-yl acetate] displayed a Ki of 8.34 ± 3.53 nM and a 50% inhibitory concentration (IC50) of 5.83 nM. In assay [2], the affinity corresponds to a Ki of 6.29 ± 2.07 nM and the IC50 was determined as 3.98 nM.

For the compound `CC(=O)O[C@@H]1C(=O)N(C2Cc3ccccc3C2)[C@@H]1c1ccc(Cl)c(Cl)c1` (relative stereo) [Compound 2f, (3S*,4R*)-2-(3,4-Dichlorophenyl)-1-(2,3-dihydro-1H-inden-2-yl)-4-oxoazetidin-3-yl acetate], in assay [1], the Ki came to 1.5 ± 0.421 nM and inhibition was half-maximal at 5.97 nM (IC50). In assay [2], the Ki came out at 1.16 ± 0.514 nM and the IC50 is 1.63 nM.

As for `CC(=O)O[C@@H]1C(=O)N(C2Cc3ccccc3C2)[C@@H]1c1cccc(Br)c1` (relative stereo) [Compound 2g, (3S*,4R*)-2-(3-Bromophenyl)-1-(2,3-dihydro-1H-inden-2-yl)-4-oxoazetidin-3-yl acetate], in assay [1], the Ki came out at 3.39 ± 1.16 nM and the midpoint of inhibition, the IC50, lay at 3.81 nM. In assay [2], this compound returned a Ki of 0.35 ± 0.105 nM and an IC50 of 0.652 nM.

In assay [1], `CC(=O)O[C@@H]1C(=O)N(C2Cc3ccccc3C2)[C@@H]1c1ccccc1Br` (relative stereo) [Compound 2h, (3S*,4R*)-2-(2-Bromophenyl)-1-(2,3-dihydro-1H-inden-2-yl)-4-oxoazetidin-3-yl acetate] returned a Ki of 2.19 ± 0.921 nM and an IC50 of 5.21 nM. In assay [2], this compound registered a Ki of 0.91 ± 0.143 nM and an IC50 of 2.65 nM.

In assay [1], `CC(=O)O[C@@H]1C(=O)N(C2Cc3ccccc3C2)[C@@H]1c1ccccc1[N+](=O)[O-]` (relative stereo) [Compound 2j, (3S*,4R*)-1-(2,3-Dihydro-1H-inden-2-yl)-2-(2-nitrophenyl)-4-oxoazetidin-3-yl acetate] displayed an inhibitory constant (Ki) of 2.88 ± 1.17 nM and a half-maximal inhibitory concentration (IC50) of 5.02 nM. In assay [2], the inhibition constant Ki was found to be 1.09 ± 0.136 nM and the half-inhibitory concentration (IC50) is 4.81 nM.

In assay [1], `CC(=O)O[C@@H]1C(=O)N(C2Cc3ccccc3C2)[C@@H]1c1ccc(F)cc1` (relative stereo) [Compound 2k, (3S*,4R*)-1-(2,3-Dihydro-1H-inden-2-yl)-2-(4-fluorophenyl)-4-oxoazetidin-3-yl acetate] showed a Ki of 1.34 ± 0.539 nM and a half-maximal inhibitory concentration (IC50) of 6.86 nM. In addition, in assay [2], the inhibition constant Ki is 0.94 ± 0.43 nM and the IC50 is 2.5 nM.

In assay [1], `CC(=O)OC1C(=O)N(C2Cc3ccccc3C2)C1c1ccc(Br)cc1` (stereo not drawn) [Compound 2ı, (3S*,4R*)-2-(4-Bromophenyl)-1-(2,3-dihydro-1H-inden-2-yl)-4-oxoazetidin-3-yl acetate] had an inhibition constant (Ki) of 0.93 ± 0.295 nM and an IC50 of 4.03 nM. Further, in assay [2], the affinity corresponds to a Ki of 0.97 ± 0.245 nM and the IC50 turned out to be 2.55 nM.
